According to ChEMBL document CHEMBL1201862, “PubChem BioAssay data set” (2004):
Active and inactive are the calls of the source.

What was measured:
[1] = Luminescence Cell-Based Dose Retest to Confirm Inhibitors of Cancer Stem Cells. [Related pubchem assays (depositor defined):AID2717, AID2721]; assay type: functional; details: Homo sapiens
[2] = biological target: T1, Microphthalmia-associated transcription factor (Homo sapiens, UniProt O75030); assay: TRPM1 promoter luciferase signal decrease, dose response, MITF inhibitor project, cell-based, SK-MEL-5, cherry-picked, set 3 (AID 493073); assay type: functional
T1 sequence (O75030 whole entry): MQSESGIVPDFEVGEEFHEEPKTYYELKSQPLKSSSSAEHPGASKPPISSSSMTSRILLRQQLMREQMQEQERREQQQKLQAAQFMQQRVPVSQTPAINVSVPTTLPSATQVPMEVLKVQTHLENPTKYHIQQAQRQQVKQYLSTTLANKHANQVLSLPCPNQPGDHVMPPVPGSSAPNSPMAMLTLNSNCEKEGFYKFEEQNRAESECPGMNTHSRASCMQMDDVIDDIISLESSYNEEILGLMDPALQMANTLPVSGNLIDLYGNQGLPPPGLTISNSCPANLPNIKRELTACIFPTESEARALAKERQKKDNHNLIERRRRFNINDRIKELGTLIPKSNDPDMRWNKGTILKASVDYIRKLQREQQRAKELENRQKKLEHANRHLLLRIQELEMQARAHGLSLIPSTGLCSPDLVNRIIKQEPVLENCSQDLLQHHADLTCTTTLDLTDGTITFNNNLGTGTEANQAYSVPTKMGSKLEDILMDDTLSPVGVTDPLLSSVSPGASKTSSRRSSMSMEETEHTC

Beta Lactamase = Beta Lactamase (Pseudomonas aeruginosa, UniProt Q932Y6); assay: beta-lactamase reporter inhibitor potency, dose response, artefact control for TLR9-MyD88 binding inhibitor project, BLA reporter cells, FRET fluorescence (AID 588341); assay type: cell-based;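 note: cell based assay in CHO-K1 cells stably expressing beta-lactamase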
[3] = biological target: T2, Replicative DNA helicase DnaB (Mycobacterium tuberculosis, UniProt P9WMR3); assay: DnaB intein splicing inhibitors, dose response, biochemical, cell-free fluorescence (AID 449749); assay type: functional
T2 sequence (P9WMR3 whole entry): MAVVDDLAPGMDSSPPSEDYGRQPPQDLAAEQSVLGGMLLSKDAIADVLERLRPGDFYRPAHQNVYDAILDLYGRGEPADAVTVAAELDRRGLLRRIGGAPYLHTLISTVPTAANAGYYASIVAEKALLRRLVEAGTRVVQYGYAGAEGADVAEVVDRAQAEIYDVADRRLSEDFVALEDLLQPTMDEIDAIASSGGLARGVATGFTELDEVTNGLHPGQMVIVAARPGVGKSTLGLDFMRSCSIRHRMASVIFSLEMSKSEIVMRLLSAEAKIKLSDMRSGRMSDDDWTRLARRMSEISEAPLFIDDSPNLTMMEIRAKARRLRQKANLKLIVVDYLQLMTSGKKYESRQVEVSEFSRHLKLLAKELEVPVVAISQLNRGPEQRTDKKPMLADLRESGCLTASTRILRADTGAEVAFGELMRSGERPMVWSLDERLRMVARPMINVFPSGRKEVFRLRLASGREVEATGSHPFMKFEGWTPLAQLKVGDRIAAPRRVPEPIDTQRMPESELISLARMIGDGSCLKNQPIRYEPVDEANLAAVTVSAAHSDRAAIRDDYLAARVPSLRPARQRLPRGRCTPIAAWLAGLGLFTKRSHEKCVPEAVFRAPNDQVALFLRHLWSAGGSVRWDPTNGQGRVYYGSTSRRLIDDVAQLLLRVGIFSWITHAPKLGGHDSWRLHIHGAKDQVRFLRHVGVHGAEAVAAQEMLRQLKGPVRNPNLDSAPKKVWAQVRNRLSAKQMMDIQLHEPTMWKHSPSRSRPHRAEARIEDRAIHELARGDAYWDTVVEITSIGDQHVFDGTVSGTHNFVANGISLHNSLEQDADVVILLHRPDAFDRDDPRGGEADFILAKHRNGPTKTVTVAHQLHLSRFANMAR

Protein RecA = biological target: T3, Protein RecA (Mycobacterium tuberculosis, UniProt P9WHJ3); assay: Fluorescence Cell-Free Homogeneous Dose Retest to Identify Inhibitors of RecA-Intein Splicing Activity. [Related pubchem assays (depositor defined):AID2097, AID2223, AID489010, AID492950]; assay type: functional
T3 sequence (P9WHJ3 whole entry): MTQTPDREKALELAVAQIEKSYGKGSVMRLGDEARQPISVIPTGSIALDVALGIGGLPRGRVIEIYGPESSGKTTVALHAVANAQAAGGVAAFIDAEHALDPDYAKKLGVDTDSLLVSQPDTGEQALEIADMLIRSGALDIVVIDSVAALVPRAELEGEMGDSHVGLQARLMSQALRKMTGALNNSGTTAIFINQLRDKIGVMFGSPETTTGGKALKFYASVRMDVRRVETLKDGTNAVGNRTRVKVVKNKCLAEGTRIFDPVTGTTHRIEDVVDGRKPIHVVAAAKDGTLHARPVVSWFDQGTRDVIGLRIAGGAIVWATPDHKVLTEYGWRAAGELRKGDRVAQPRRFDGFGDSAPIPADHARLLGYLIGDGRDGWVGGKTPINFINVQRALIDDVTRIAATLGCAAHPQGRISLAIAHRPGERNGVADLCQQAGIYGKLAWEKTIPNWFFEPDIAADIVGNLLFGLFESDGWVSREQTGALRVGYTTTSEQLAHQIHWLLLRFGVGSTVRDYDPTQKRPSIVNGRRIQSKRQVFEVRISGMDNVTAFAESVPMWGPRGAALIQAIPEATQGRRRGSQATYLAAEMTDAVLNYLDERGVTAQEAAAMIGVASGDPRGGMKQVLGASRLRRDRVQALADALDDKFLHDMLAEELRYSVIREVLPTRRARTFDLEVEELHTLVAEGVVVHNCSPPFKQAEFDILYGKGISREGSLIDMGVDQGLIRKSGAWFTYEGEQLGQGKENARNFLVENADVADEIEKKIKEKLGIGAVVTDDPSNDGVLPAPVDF

[4] = Shn3 3'UTR reporter inhibitors, dose response, cell-based, Clone20 osteoblasts, firefly luciferase, cherry-picked (AID 624132); assay type: functional;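 note: firefly luciferase luminescence from reporter carrying the Shn3 3'UTR in osteoblasts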
[5] = HepG2 cell cytotoxicity, dose response, cytotoxicity control for Shn3 inhibitor project, CellTiter-Glo, cherry-picked (AID 624134); assay type: functional, cell-based
CHO = assay: cytotoxicity in TLR9-MyD88 CHO cells, dose response, cytotoxicity control for TLR9-MyD88 binding inhibitor project, cell-based, luminescence (AID 588339); assay type: functional, hamster; details: Cricetulus griseus;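 note: CHO cells stably coexpressing TLR9 and MyD88 fusions from primary screen; compound exposure lasted 48 hours before viability readout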
[6] = biological target: T4, Ubiquitin-conjugating enzyme E2 N (Homo sapiens, UniProt P61088); assay type: functional
T4 sequence (P61088 whole entry): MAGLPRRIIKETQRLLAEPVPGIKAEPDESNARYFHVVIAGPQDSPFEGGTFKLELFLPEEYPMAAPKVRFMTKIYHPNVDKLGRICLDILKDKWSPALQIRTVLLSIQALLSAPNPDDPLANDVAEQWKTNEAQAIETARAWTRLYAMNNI

[7] = biological target: T4, Ubiquitin-conjugating enzyme E2 N; assay type: functional; remark: listed apart in the source
[8] = control 3'UTR Renilla luciferase suppression, dose response, counter-screen for Shn3 inhibitor project, cell-based, Clone20-Shn3RL, cherry-picked (AID 624133); assay type: functional
Genome polyprotein = Genome polyprotein (dengue virus type 2, UniProt P29990); assay: Dengue-2 NS5 methyltransferase inhibitors, primary screen, biochemical, confirmation dose response (AID 588689); assay type: functional
Bcl-2-related protein A1 = biological target: T5, Bcl-2-related protein A1 (Mus musculus, UniProt Q07440); assay type: functional;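 note: confirmatory dose–response counterscreen on Bfl-1, used to check hits from a UBC13 polyubiquitin inhibitor campaign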
T5 sequence (Q07440 whole entry): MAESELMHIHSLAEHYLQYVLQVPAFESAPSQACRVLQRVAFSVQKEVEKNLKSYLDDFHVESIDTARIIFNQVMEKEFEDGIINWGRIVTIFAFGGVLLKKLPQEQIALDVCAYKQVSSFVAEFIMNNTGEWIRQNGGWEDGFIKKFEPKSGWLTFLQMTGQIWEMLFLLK

HeLa = assay: HeLa cell cytotoxicity, dose response, cytotoxicity control for MITF activator project, CellTiter-Glo luminescence, cherry-pick samples (AID 540259); assay type: functional, cell-based; details: Homo sapiens
Protein Wnt-3a = Protein Wnt-3a (Mus musculus, UniProt P27467); assay: Wnt3a-driven reporter signaling inhibition, dose response, selectivity assay for Gli-SUFU antagonist project, Wnt-LIGHT cells, luminescence (AID 651570); assay type: functional; details: read-out: IC50_Mean;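 note: Wnt-LIGHT reporter cells stimulated with conditioned medium from Wnt3a-producing cells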
Prothrombin = Prothrombin (Bos taurus, UniProt P00735); assay: thrombin inhibition, dose response, biochemical, fluorescence polarization, uHTS hits (AID 602369); assay type: functional
[9] = biological target: 26S proteasome non-ATPase regulatory subunit 14 (Homo sapiens, UniProt O00487); assay: inhibition of proteasome subunit RPN11 – biochemical, fluorescence polarization, uHTS hits, confirmation (AID 602368); assay type: functional
[10] = biological target: 72 kDa type IV collagenase (Homo sapiens, UniProt P08253); assay: Dose Response validation of uHTS RPN11 inhibitor hits using a MMP-2 Fluorescence assay.; assay type: functional
[11] = Counterscreen for activators of the function of SWI/SNF related, matrix associated, actin dependent regulator of chromatin, subfamily a, member 2 (SMARCA2, BRM): Luminescence-based cell-based high throughput dose response assay to identify non-selective compounds using the VP16 reporter assay.; assay type: functional
[12] = biological target: T6, Carboxy-terminal domain RNA polymerase II polypeptide A small phosphatase 1 (Homo sapiens, UniProt Q9GZU7); assay: inhibitors of CTDSP1, concentration-response testing, biochemical assay, absorbance-based, actives from ultra-high-throughput screening (AID 540297); assay type: functional
T6 sequence (Q9GZU7 whole entry): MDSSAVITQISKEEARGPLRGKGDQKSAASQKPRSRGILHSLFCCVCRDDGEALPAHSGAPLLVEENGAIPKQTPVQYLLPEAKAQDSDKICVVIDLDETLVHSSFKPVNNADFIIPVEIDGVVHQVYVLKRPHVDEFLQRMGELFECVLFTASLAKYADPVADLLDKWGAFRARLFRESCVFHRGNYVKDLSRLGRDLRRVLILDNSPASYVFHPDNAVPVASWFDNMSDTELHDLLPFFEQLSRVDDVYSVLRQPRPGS

[13] = biological target: SWI/SNF-related matrix-associated actin-dependent regulator of chromatin subfamily A member 2 (Homo sapiens, UniProt P51531); assay: Luminescence-based cell-based high throughput dose response assay to identify activators of the function of SWI/SNF related, matrix associated, actin dependent regulator of chromatin, subfamily a, member 2 (SMARCA2, BRM).; assay type: functional
Chain of SWI/SNF-related matrix-associated actin-dependent regulator of chromatin subfamily A member 2 (P51531 whole entry): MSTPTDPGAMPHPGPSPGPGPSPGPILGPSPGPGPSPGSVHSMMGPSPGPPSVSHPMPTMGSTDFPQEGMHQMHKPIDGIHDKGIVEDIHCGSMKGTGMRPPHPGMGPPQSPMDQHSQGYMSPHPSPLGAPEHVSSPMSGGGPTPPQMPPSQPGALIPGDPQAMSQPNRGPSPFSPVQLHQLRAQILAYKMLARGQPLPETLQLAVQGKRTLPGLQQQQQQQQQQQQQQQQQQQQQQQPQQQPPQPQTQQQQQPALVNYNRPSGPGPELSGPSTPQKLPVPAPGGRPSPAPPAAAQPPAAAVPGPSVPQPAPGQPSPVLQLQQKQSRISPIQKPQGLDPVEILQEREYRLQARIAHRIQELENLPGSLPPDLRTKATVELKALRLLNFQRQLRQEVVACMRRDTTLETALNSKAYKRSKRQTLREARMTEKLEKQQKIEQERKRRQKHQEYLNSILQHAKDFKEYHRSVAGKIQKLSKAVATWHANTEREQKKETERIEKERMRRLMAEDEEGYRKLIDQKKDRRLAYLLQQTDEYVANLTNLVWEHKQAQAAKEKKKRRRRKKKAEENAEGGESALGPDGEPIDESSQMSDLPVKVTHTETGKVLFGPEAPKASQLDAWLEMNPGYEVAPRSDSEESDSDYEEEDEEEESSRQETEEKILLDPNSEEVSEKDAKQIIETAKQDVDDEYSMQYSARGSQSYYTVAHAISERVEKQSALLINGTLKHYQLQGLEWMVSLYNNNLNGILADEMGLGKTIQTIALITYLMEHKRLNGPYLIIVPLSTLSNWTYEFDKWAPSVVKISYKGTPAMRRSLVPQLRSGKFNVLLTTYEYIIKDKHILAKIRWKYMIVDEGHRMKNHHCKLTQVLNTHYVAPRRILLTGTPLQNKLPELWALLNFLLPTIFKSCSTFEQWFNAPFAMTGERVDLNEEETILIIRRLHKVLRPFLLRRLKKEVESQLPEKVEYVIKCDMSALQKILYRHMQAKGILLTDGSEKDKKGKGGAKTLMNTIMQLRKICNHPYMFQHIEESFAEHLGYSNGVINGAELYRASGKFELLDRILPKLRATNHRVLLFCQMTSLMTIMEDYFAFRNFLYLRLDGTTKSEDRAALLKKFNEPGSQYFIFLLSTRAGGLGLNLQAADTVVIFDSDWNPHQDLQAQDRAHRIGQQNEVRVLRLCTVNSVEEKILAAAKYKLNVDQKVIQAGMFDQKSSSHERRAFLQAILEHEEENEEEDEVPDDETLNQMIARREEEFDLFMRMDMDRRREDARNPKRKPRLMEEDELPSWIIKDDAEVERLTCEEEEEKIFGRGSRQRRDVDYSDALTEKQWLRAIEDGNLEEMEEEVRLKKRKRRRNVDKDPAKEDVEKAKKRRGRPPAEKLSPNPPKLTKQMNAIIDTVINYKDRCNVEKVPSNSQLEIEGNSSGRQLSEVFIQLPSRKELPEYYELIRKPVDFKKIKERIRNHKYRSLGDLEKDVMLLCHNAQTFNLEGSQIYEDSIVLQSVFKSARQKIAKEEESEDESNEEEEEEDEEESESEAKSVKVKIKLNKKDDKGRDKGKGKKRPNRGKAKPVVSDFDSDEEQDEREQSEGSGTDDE

Chain of Protein Wnt-3a (P27467 whole entry): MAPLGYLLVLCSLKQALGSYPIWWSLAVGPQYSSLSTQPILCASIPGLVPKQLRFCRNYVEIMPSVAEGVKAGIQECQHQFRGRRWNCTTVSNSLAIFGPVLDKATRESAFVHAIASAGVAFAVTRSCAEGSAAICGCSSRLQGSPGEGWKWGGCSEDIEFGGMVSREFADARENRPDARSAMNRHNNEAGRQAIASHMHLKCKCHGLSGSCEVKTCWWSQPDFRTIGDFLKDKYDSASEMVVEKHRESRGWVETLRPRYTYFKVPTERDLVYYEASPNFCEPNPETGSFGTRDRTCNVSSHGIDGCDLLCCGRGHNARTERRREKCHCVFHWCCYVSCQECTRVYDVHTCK
Chain of Beta Lactamase (Q932Y6 whole entry): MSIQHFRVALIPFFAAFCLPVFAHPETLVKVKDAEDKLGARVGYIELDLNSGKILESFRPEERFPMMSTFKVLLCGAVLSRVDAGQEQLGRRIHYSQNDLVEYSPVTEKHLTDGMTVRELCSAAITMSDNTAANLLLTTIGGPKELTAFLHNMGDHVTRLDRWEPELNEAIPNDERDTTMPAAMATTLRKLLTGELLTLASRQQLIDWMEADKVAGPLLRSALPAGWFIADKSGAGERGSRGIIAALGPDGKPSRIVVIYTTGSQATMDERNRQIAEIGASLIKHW
Chain of 72 kDa type IV collagenase (P08253 whole entry): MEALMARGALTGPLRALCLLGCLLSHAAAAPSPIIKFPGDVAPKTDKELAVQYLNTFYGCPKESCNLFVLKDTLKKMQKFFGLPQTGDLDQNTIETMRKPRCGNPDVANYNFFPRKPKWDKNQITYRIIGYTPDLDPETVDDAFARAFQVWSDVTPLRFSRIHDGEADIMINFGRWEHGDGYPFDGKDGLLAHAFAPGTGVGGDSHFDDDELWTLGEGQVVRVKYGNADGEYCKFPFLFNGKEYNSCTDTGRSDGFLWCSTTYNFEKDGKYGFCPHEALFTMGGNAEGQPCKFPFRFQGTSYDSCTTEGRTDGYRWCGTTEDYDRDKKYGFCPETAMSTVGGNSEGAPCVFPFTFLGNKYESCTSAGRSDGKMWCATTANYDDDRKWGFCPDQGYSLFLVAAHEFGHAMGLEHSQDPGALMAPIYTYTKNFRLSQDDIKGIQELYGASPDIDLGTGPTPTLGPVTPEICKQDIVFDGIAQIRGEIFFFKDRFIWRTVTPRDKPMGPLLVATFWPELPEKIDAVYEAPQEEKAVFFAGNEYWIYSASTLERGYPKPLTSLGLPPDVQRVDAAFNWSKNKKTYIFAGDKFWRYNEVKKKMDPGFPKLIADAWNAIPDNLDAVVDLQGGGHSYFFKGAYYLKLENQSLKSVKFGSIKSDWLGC
Chain of Genome polyprotein (P29990 2492-3391 limits assumed): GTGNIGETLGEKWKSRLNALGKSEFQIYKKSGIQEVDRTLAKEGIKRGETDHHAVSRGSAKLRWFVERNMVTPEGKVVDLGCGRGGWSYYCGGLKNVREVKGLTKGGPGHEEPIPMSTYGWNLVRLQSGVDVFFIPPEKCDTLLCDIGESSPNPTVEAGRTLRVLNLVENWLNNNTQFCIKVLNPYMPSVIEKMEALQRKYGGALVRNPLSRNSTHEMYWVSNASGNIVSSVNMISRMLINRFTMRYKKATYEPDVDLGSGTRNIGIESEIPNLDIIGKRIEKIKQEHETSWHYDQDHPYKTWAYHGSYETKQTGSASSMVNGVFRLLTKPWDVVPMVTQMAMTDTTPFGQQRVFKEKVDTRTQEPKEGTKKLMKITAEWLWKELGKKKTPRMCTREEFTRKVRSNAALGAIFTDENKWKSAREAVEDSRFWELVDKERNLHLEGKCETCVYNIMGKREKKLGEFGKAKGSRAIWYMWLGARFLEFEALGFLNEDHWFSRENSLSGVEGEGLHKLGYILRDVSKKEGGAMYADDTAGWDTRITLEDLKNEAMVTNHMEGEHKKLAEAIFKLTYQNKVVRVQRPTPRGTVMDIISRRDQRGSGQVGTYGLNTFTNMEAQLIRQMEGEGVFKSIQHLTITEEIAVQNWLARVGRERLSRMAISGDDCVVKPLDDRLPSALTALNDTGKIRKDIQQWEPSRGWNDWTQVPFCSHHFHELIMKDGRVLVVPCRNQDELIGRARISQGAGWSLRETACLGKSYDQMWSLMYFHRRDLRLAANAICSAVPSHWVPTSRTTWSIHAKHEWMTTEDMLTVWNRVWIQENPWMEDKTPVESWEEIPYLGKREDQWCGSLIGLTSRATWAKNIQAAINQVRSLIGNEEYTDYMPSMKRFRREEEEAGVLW
Chain of 26S proteasome non-ATPase regulatory subunit 14 (O00487 whole entry): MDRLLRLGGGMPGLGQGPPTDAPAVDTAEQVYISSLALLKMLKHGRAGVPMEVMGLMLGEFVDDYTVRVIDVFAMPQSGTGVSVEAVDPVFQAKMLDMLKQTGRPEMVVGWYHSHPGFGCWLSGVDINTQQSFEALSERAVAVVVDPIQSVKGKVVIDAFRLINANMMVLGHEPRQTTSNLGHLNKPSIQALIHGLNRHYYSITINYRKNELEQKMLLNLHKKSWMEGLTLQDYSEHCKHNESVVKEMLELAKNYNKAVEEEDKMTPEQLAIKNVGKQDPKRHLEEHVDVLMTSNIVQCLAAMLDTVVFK

## CS(=O)(=O)c1ncc(Cl)c(C(=O)Nc2ccc(N3CCOCC3)cc2)n1
[1]
  AC50: 5.14 µM (active)
[2]
  AC50: 22.8 µM (active)
Beta Lactamase
  IC50: 10.2 µM (inactive)
[3]
  AC50: 4.51 µM (active)
Protein RecA
  EC50: 12.8 µM (active)
[4]
  AC50: 1.21 µM (active)
[5]
  AC50: 24 µM (active)
CHO
  IC50: 4.79 µM (active)
[6]
  IC50: 14.9 µM (active)
[7]
  IC50: > 20 µM (inactive)
[8]
  AC50: 12.9 µM (active)
Genome polyprotein
  IC50: > 100 µM (active)
Bcl-2-related protein A1
  IC50: > 20 µM (inactive)

## O=c1nc2sc3ccccc3n2c(=O)n1-c1ccc(Cl)cc1
HeLa
  AC50: 43.9 µM (active)

## Cc1ccc(C(=O)Nc2cccc(O)c2)cc1S(=O)(=O)N1CCCCCC1
HeLa
  AC50: 321 µM (active)

## Cc1cc(NC(=O)CSc2nc3c4ccccc4nc-3c(O)n2-c2ccccc2F)no1
Protein Wnt-3a
  IC50: 6.29 µM (active)

## c1ccc(C[n+]2cccc(-c3ccccc3)c2)cc1
Protein Wnt-3a
  IC50: 44.8 µM (inactive)

## Cc1ccc(CNC(=O)c2nnn(CC(=O)Nc3cc(C)cc(C)c3)c2N)cc1
Prothrombin
  IC50: 76.5 µM (active)
[9]
  IC50: 35.4 µM (active)
[10]
  IC50: > 100 µM (inactive)

## Cc1ccc(NC(=O)/C=C/c2ccco2)cc1S(=O)(=O)N1CCCCCC1
Protein Wnt-3a
  IC50: 17.7 µM (active)

## O=C1NC2c3c(Cl)sc(Cl)c3C(=O)C2O1 (centres undefined)
[11]
  EC50: > 91 µM (inactive)
[12]
  IC50: 3.75 µM (active)
[13]
  EC50: > 91 µM (inactive)
